“And” between values parts separate entries of the source, which are not always exact repeats. Equal entries are not always repeated. Where two headings read alike, the source gives them in different places.
Columns and labels:
[1] = test system: Apis mellifera ligustica Spin; details: for Death number after 24 h / Death number after 48 h: per replicate of 10 bees
Caenorhabditis elegans = test: Insecticidal activity against Caenorhabditis elegans; format: in vivo; details: Caenorhabditis elegans, 100 μg/mL; read-out: insecticidal activity, Caenorhabditis elegans
[2] = test system: Mythimna separate (Walker); test: Insecticidal activity against Mythimna separate (Walker); format: in vivo; details: Mythimna, 100 μg/mL; read-out: insecticidal activity, Mythimna separate (Walker)
Ostrinia furnacalis = test: Insecticidal activity against Ostrinia furnacalis; format: in vivo; details: Ostrinia furnacalis; 100 μg/mL; read-out: insecticidal activity, Ostrinia furnacalis
[3] = test system: Phytophthora infestans (Mont.) de Bary; test: microbe, parasite or virus in culture; format: cell-based; details: Phytophthora infestans, read-out: fungicidal activity (growth inhibition rate), PI, 50 μg/mL
Alternaria solani = test: Fungicidal activity, fungicide growth rate method, AS; format: cell-based; details: Alternaria solani, read-out: fungicidal activity (growth inhibition rate), AS
Botrytis cinerea = test: Fungicidal activity, fungicide growth rate method, BC; format: cell-based; details: Botrytis cinerea, read-out: fungicidal activity (growth inhibition rate), BC
[4] = test system: Helicoverpa armigera (Hübner); test: Insecticidal activity against Helicoverpa armigera (Hübner); format: in vivo; details: Helicoverpa armigera; 100 μg/mL; read-out: insecticidal activity, Helicoverpa armigera (Hübner)
Rhizoctonia cerealis = test: Fungicidal activity, fungicide growth rate method, RC; format: cell-based; details: for inhibition at 50 µg/mL: Ceratobasidium cereale, read-out: fungicidal activity (growth inhibition rate), RC
Cercospora arachidicola = test: Fungicidal activity, fungicide growth rate method, CA; format: cell-based; details: Mycosphaerella arachidis, read-out: fungicidal activity (growth inhibition rate), CA
Physalospora piricola = test: Fungicidal activity, fungicide growth rate method, PP; format: cell-based; details: read-out: fungicidal activity (growth inhibition rate), PP
wheat Gibberella zeae = test: microbe, parasite or virus in culture; format: cell-based; details: Fusarium graminearum, read-out: fungicidal activity (growth inhibition rate), GZ, 50 μg/mL
Pellicularia sasakii = test: Fungicidal activity, fungicide growth rate method, PS; format: cell-based; details: read-out: fungicidal activity (growth inhibition rate), PS
Sclerotinia sclerotiorum = test: Fungicidal activity, fungicide growth rate method, SS; format: cell-based; details: Sclerotinia sclerotiorum, 50 μg/mL

| Compound | pest or weed control at 100 µg/mL (Caenorhabditis elegans) [%] | pest or weed control at 100 µg/mL [2] [%] | pest or weed control at 100 µg/mL (Ostrinia furnacalis) [%] | inhibition at 50 µg/mL [3] [%] | inhibition at 50 µg/mL (Alternaria solani; 50 μg/mL) [%] | inhibition at 50 µg/mL (Botrytis cinerea; 50 μg/mL) [%] | pest or weed control at 100 µg/mL [4] [%] | inhibition at 50 µg/mL (wheat Gibberella zeae) [%] | inhibition at 50 µg/mL (Cercospora arachidicola; 50 μg/mL) [%] | inhibition at 50 µg/mL (Pellicularia sasakii; 50 μg/mL) [%] | inhibition at 50 µg/mL (Rhizoctonia cerealis; 50 μg/mL) [%] | inhibition at 50 µg/mL (Physalospora piricola; 50 μg/mL) [%] | further results |
| --- | --- | --- | --- | --- | --- | --- | --- | --- | --- | --- | --- | --- | --- |
| C=CCC1CC2(O)CC(CC=C)C3CC=CCC32O1 (racemic) [Zyj-7-98] |  |  |  |  |  |  |  |  |  |  |  |  | Death rate after 48 h (%) ([1]; dosage 12.0 μg a.i./bee): 0%; Death number after 24 h ([1]; dosage 12.0 μg a.i./bee): 0; Death number after 48 h ([1]; dosage 12.0 μg a.i./bee): 0 |
| O=C1CCC23CC=CCC12O3 (stereo not shown) [Zyj06-39] | > 30 | 10 | 0 | 27 | > 60 | 36 | 0 |  |  |  |  |  | fungicidal activity (growth inhibition rate), RC (Rhizoctonia cerealis; 50 μg/mL): 93% |
| C[Si](C)(C)O[C@]12CC=CC[C@@H]1C=CC2=O [Zyj06-82] | 8 | 25 | 5 | 16 |  |  | 5 | 0 |  |  |  |  | inhibition at 50 µg/mL (Cercospora arachidicola): 24%; inhibition at 50 µg/mL (Physalospora piricola): 40%; inhibition at 50 µg/mL (Alternaria solani): 14%; inhibition at 50 µg/mL (Botrytis cinerea): > 50%; inhibition at 50 µg/mL (Pellicularia sasakii): 23%; inhibition at 50 µg/mL (Rhizoctonia cerealis): 43% |
| CCOC(=O)C(C(=O)OCC)C1C[C@]2(O)C(C(=O)OCC)C(=O)O[C@@]23CC=CC[C@H]13 (stereo partly shown) [Zyj06-113-3] | 5 | 0 | 0 | 11 |  | > 50 | 0 | 43 | > 50 | 11 | 32 |  | Death rate after 48 h (%) ([1]; dosage 9.87 μg a.i./bee): 0%; Death number after 24 h ([1]; dosage 9.87 μg a.i./bee): 0; Death number after 48 h ([1]; dosage 9.87 μg a.i./bee): 0; Death rate after 48 h (%) ([1]; dosage 15.2 μg a.i./bee): 10.0%; Death number after 24 h ([1]; dosage 15.2 μg a.i./bee): 0; Death number after 48 h ([1]; dosage 15.2 μg a.i./bee): 1 |
| CCOC(=O)C1C(=O)O[C@]23CC=CC[C@@H]2[C@H](OOC(C)(C)C)C[C@]13O (stereo partly shown) [Zyj06-127] | 7 | 0 | 0 | 2 | 7 | 45 | 0 | 36 | 23 | 4 | 40 | 5 | Death rate after 48 h (%) ([1]; dosage 5.40 μg a.i./bee): 0%; Death number after 24 h ([1]; dosage 5.40 μg a.i./bee): 0; Death number after 48 h ([1]; dosage 5.40 μg a.i./bee): 0; Death rate after 48 h (%) ([1]; dosage 7.70 μg a.i./bee): 0%; Death number after 24 h ([1]; dosage 7.70 μg a.i./bee): 0; Death number after 48 h ([1]; dosage 7.70 μg a.i./bee): 0 |
| C=CC[C@@H]1CC(=O)[C@@]2(O)CC=CC[C@H]12 [Zyj06-177] |  | 0 | 0 | 11 | 12 | 48 | 0 | 0 | 46 | 19 | 61 | 11 | Death rate after 48 h (%) ([1]; dosage 8.17 μg a.i./bee): 0%; Death number after 24 h ([1]; dosage 8.17 μg a.i./bee): 0; Death number after 48 h ([1]; dosage 8.17 μg a.i./bee): 0; Death rate after 48 h (%) ([1]; dosage 9.46 μg a.i./bee): 0%; Death number after 24 h ([1]; dosage 9.46 μg a.i./bee): 0; Death number after 48 h ([1]; dosage 9.46 μg a.i./bee): 0 |
| C=CC[C@@H]1C[C@]2(O)CC(=O)O[C@@]23C[C@@H](Cl)[C@H](O)C[C@H]13 [Zyj07-14] | 20 |  |  | 2 | 15 | > 50 |  | 43 | 31 | 15 | 51 | 31 |  |
| C=CC[C@@H]1C[C@]2(O)CC(O)O[C@@]23CC=CC[C@H]13 (stereo partly shown) [Zyj07-29] | > 30 | > 30 | 10 | 25 | 0 | 27 | 15 | 7 | 5 | 0 | 0 | 45 | Death rate after 48 h (%) ([1]; dosage 3.68 μg a.i./bee): 5.0%; Death number after 24 h ([1]; dosage 3.68 μg a.i./bee): 0; Death number after 48 h ([1]; dosage 3.68 μg a.i./bee): 0 and 1; Death rate after 48 h (%) ([1]; dosage 4.39 μg a.i./bee): 0%; Death number after 24 h ([1]; dosage 4.39 μg a.i./bee): 0; Death number after 48 h ([1]; dosage 4.39 μg a.i./bee): 0 |
| C=CC[C@@H]1C[C@]2(O)CCO[C@@]23CC=CC[C@H]13 [Zyj07-30] | 7 | 0 | 0 | 15 | 0 | 39 | 0 | 3 | 14 | 27 | 13 | 0 | Death rate after 48 h (%) ([1]; dosage 9.77 μg a.i./bee): 15.0%; Death number after 24 h ([1]; dosage 9.77 μg a.i./bee): 0; Death number after 48 h ([1]; dosage 9.77 μg a.i./bee): 1 and 2; Death rate after 48 h (%) ([1]; dosage 19.8 μg a.i./bee): 5.0%; Death number after 24 h ([1]; dosage 19.8 μg a.i./bee): 0; Death number after 48 h ([1]; dosage 19.8 μg a.i./bee): 1 and 0 |
| C=CC[C@@H]1C[C@@]2(OC(C)=O)C[C@@H](CC=C)[C@H]3CC=CC[C@@]32O1 [Zyj07-38] | > 30 | 15 | 5 |  |  |  | 10 |  | > 50 |  |  |  |  |
| C=CC[C@@H]1C[C@]2(OC(C)=O)C[C@@H](OC(C)=O)O[C@@]23C[C@H]2O[C@H]2C[C@H]13 [Zyj07-65-1] | 12 | 25 | 5 |  |  |  | 10 |  |  |  |  |  | Death rate after 48 h (%) ([1]; dosage 7.54 μg a.i./bee): 10.0%; Death number after 24 h ([1]; dosage 7.54 μg a.i./bee): 0 and 1; Death number after 48 h ([1]; dosage 7.54 μg a.i./bee): 0 and 2; Death rate after 48 h (%) ([1]; dosage 18.1 μg a.i./bee): 10.0%; Death number after 24 h ([1]; dosage 18.1 μg a.i./bee): 0 and 1; Death number after 48 h ([1]; dosage 18.1 μg a.i./bee): 0 and 2 |
| C=CC[C@@H]1C[C@@]2(O)C[C@@H](CC=C)[C@H]3CC[C@@H](O)C[C@@]32O1 [Zyj07-69] | 10 | 25 | 10 |  |  |  | 15 |  |  |  |  |  | Death rate after 48 h (%) ([1]; dosage 9.71 μg a.i./bee): 5.0%; Death number after 24 h ([1]; dosage 9.71 μg a.i./bee): 0; Death number after 48 h ([1]; dosage 9.71 μg a.i./bee): 0 and 1 |
| C=CC[C@@H]1CC2=CC(=O)O[C@@]23CC=CC[C@H]13 [Zyj07-92] |  | 20 | 0 | 15 | > 60 | 30 | 0 |  |  | 40 | > 70 |  | inhibition at 50 µg/mL (Sclerotinia sclerotiorum): 38%; Death rate after 48 h (%) ([1]; dosage 7.44 μg a.i./bee): 5.0%; Death number after 24 h ([1]; dosage 7.44 μg a.i./bee): 0; Death number after 48 h ([1]; dosage 7.44 μg a.i./bee): 0 and 1; Death rate after 48 h (%) ([1]; dosage 14.3 μg a.i./bee): 5.0%; Death number after 24 h ([1]; dosage 14.3 μg a.i./bee): 0; Death number after 48 h ([1]; dosage 14.3 μg a.i./bee): 0 and 1 |
| O=C1C[C@@]2(O)CC[C@H]3C[C@@H](O)[C@@H](Cl)C[C@@]32O1 [Zyj07-103] |  | > 30 | 10 | 42 |  | 27 | 15 | 47 | 38 | 0 | 4 | > 50 |  |

From US11716992B2, “5A5B6C tricyclic spirolactone derivative, preparation method therefor and use thereof” (NANKAI UNIVERSITY, priority 2017, dated 2023)
